Tests used:
Type in all cases: in vivo
[1] = system: duck salad (Heteranthera limosa); assay: Test C flooded paddy test; conditions: for Ducksalad plant response rating: Flooded Paddy, scale 0 to 100, 0 no effect, 100 complete control; for Plant response rating, Ducksalad: flooded paddy test, scale 0 to 100 (0 no effect, 100 complete control)
Outline: (§1)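 Response on a 0-to-100 scale (no effect to complete control) was assessed by eye versus controls. Plants had reached 2 leaves when treated in flooded paddy conditions. The assessment took place after 12–14 days of greenhouse growth.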

[2] = system: smallflower flatsedge (Cyperus difformis); assay: Test C flooded paddy test; conditions: for Flatsedge plant response rating: Flooded Paddy, scale 0 to 100, 0 no effect, 100 complete control; for Plant response rating, Flatsedge: flooded paddy test, scale 0 to 100 (0 no effect, 100 complete control)
Outline: as §1

[3] = system: barnyardgrass (Echinochloa crus-galli); assay: Test C flooded paddy test; conditions: for Barnyardgrass plant response rating: Flooded Paddy, scale 0 to 100, 0 no effect, 100 complete control; for Plant response rating, Barnyardgrass: flooded paddy test, scale 0 to 100 (0 no effect, 100 complete control)
Outline: as §1

[4] = system: woolly cupgrass (Eriochloa villosa); assay: Test C preemergence
Outline: (§2)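 Visual 0–100 rating vs controls (0 = no effect, 100 = complete control) at 12–14 d, greenhouse. Compounds in non-phytotoxic solvent + surfactant; pre: sprayed after seeding; post: 1–4-leaf plants, 2–18 cm.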

[5] = system: pigweed (Amaranthus retroflexus); assay: Test C preemergence
Outline: as §2

[6] = system: johnsongrass (Sorghum halepense); assay: Test C preemergence
Outline: as §2

[7] = system: common ragweed (Ambrosia elatior); assay: Test C preemergence
Outline: as §2

[8] = system: goosegrass (Eleusine indica); assay: Test C preemergence
Outline: as §2

[9] = system: morningglory (Ipomoea hederacea); assay: Test C preemergence
Outline: as §2

kochia (Kochia scoparia) = assay: Test C preemergence
Outline: as §2

[10] = system: velvetleaf (Abutilon theophrasti); assay: Test C preemergence
Outline: as §2

[11] = system: bermudagrass (Cynodon dactylon); assay: Test C preemergence
Outline: as §2

[12] = system: lambsquarters (Chenopodium album); assay: Test C preemergence
Outline: as §2

[13] = system: giant foxtail (Setaria faberii); assay: Test C preemergence
Outline: as §2

[14] = system: Surinam grass (Brachiaria decumbens); assay: Test C preemergence
Outline: as §2

[15] = system: crabgrass (Digitaria sanguinalis); assay: Test C preemergence
Outline: as §2

[16] = system: cocklebur (Xanthium strumarium); assay: Test C preemergence
Outline: as §2

corn (Zea mays) = assay: Test C preemergence
Outline: as §2

Nightshade = assay: Test C preemergence
[17] = system: yellow nutsedge (Cyperus esculentus); assay: Test C preemergence
Outline: as §2

Sunflower = assay: Test C preemergence; conditions: Rate 62 g/ha; scale 0 to 100, 0 no effect, 100 complete control
soybean (Glycine max) = assay: Test C preemergence
Outline: as §2

[18] = Rate 62 g/ha, scale 0 to 100, 0 no effect, 100 complete control
[19] = preemergence, Rate 16 g/ha, scale 0 to 100
[20] = preemergence, Rate 31 g/ha, scale 0 to 100
[21] = preemergence, Rate 125 g/ha, scale 0 to 100, 0 no effect, 100 complete control

CC(C)(C)c1ccn(C2CCN(c3cccc(Cl)c3)C2=O)n1 (stereo not shown) [Compound 43]
Ducksalad plant response rating ([1]; Rate 250 g/ha): 30 | Ducksalad plant response rating ([1]; Rate 500 g/ha): 80 | Plant response rating, Ducksalad ([1]; Rate 62 g/ha): 0 | Plant response rating, Ducksalad ([1]; Rate 125 g/ha): 20 | Flatsedge plant response rating ([2]; Rate 250 g/ha): 100 | Flatsedge plant response rating ([2]; Rate 500 g/ha): 100 | Plant response rating, Flatsedge ([2]; Rate 62 g/ha): 90 | Plant response rating, Flatsedge ([2]; Rate 125 g/ha): 100 | Barnyardgrass plant response rating ([3]; Rate 250 g/ha): 100 | Barnyardgrass plant response rating ([3]; Rate 500 g/ha): 100 | Plant response rating, Barnyardgrass ([3]; Rate 62 g/ha): 30 | Plant response rating, Barnyardgrass ([3]; Rate 125 g/ha): 80 | Plant response rating, Cupgrass, Woolly [4, 18]: 30 | Plant response rating, Cupgrass, Woolly [4, 19]: 0 | Plant response rating, Cupgrass, Woolly [4, 20]: 0 | Plant response rating, Cupgrass, Woolly [4, 21]: 30 | Plant response rating, Pigweed [5, 18]: 100 | Plant response rating, Pigweed [5, 19]: 20 | Plant response rating, Pigweed [5, 20]: 100 | Plant response rating, Pigweed [5, 21]: 0 | Plant response rating, Johnsongrass [6, 18]: 0 | Plant response rating, Johnsongrass [6, 19]: 0 | Plant response rating, Johnsongrass [6, 20]: 0 | Plant response rating, Johnsongrass [6, 21]: 50 | Plant response rating, Ragweed, Common [7, 18]: 0 | Plant response rating, Ragweed, Common [7, 19]: 0 | Plant response rating, Ragweed, Common [7, 20]: 0 | Plant response rating, Ragweed, Common [7, 21]: 30 | Plant response rating, Goosegrass [8, 18]: 50 | Plant response rating, Goosegrass [8, 19]: 0 | Plant response rating, Goosegrass [8, 20]: 0 | Plant response rating, Goosegrass [8, 21]: 90 | Plant response rating, Morningglory [9, 18]: 0 | Plant response rating, Morningglory [9, 19]: 0 | Plant response rating, Morningglory [9, 20]: 0 | Plant response rating, Morningglory [9, 21]: 0 | Plant response rating, Kochia (kochia (Kochia scoparia); [18]): 90 | Plant response rating, Kochia (kochia (Kochia scoparia); [19]): 20 | Plant response rating, Kochia (kochia (Kochia scoparia); [20]): 70 | Plant response rating, Kochia (kochia (Kochia scoparia); [21]): 100 | Plant response rating, Velvetleaf [10, 18]: 0 | Plant response rating, Velvetleaf [10, 19]: 0 | Plant response rating, Velvetleaf [10, 20]: 0 | Plant response rating, Velvetleaf [10, 21]: 0 | Plant response rating, Bermudagrass [11, 18]: 50 | Plant response rating, Bermudagrass [11, 19]: 20 | Plant response rating, Bermudagrass [11, 20]: 40 | Plant response rating, Bermudagrass [11, 21]: 60 | Plant response rating, Lambsquarters [12, 18]: 100 | Plant response rating, Lambsquarters [12, 19]: 100 | Plant response rating, Lambsquarters [12, 20]: 100 | Plant response rating, Lambsquarters [12, 21]: 100 | Plant response rating, Foxtail, Giant [13, 18]: 0 | Plant response rating, Foxtail, Giant [13, 19]: 0 | Plant response rating, Foxtail, Giant [13, 20]: 0 | Plant response rating, Foxtail, Giant [13, 21]: 0 | Plant response rating, Surinam grass [14, 18]: 0 | Plant response rating, Surinam grass [14, 19]: 0 | Plant response rating, Surinam grass [14, 20]: 0 | Plant response rating, Surinam grass [14, 21]: 0 | Plant response rating, Crabgrass [15, 18]: 40 | Plant response rating, Crabgrass [15, 19]: 0 | Plant response rating, Crabgrass [15, 20]: 20 | Plant response rating, Crabgrass [15, 21]: 90 | Plant response rating, Cocklebur [16, 18]: 100 | Plant response rating, Cocklebur [16, 19]: 0 | Plant response rating, Cocklebur [16, 20]: 20 | Plant response rating, Cocklebur [16, 21]: 100 | Plant response rating, Corn (corn (Zea mays); [18]): 0 | Plant response rating, Corn (corn (Zea mays); [19]): 0 | Plant response rating, Corn (corn (Zea mays); [20]): 0 | Plant response rating, Corn (corn (Zea mays); [21]): 0 | Plant response rating, Nightshade (Nightshade; Rate 16 g/ha, scale 0 to 100): 0 | Plant response rating, Nightshade (Nightshade; Rate 31 g/ha, scale 0 to 100): 0 | Plant response rating, Nightshade (Nightshade; [18]): 0 | Plant response rating, Nightshade (Nightshade; Rate 125 g/ha, scale 0 to 100, 0 no effect, 100 complete control): 0 | Plant response rating, Nutsedge [17, 18]: 0 | Plant response rating, Nutsedge [17, 19]: 0 | Plant response rating, Nutsedge [17, 20]: 0 | Plant response rating, Nutsedge [17, 21]: 30 | Plant response rating, Sunflower (Sunflower): 0 | Plant response rating, Soybean (soybean (Glycine max); [18]): 0 | Plant response rating, Soybean (soybean (Glycine max); [19]): 0 | Plant response rating, Soybean (soybean (Glycine max); [20]): 0 | Plant response rating, Soybean (soybean (Glycine max); [21]): 40

From US7138361B2, “Herbicidal heterocycles” (E. I. du Pont de Nemours and Company, priority 2000, dated 2006)
